Assay [1] deals with Dual specificity protein kinase CLK1 (Homo sapiens) (UniProt P49759). As to the kind of experiment: Inhibition of human recombinant CLK1 at 40 nM in presence of ATP by radiometric assay relative to control.
Assay [2] deals with Mitogen-activated protein kinase kinase kinase kinase 1 (Homo sapiens) (UniProt Q92918). The experiment in a line: Inhibition of human recombinant HPK1 at 40 nM related to control ULK1.
For assay [3], the target named is T1, Serine/threonine-protein kinase ULK1 (Homo sapiens) (UniProt O75385).
T1 sequence (whole entry): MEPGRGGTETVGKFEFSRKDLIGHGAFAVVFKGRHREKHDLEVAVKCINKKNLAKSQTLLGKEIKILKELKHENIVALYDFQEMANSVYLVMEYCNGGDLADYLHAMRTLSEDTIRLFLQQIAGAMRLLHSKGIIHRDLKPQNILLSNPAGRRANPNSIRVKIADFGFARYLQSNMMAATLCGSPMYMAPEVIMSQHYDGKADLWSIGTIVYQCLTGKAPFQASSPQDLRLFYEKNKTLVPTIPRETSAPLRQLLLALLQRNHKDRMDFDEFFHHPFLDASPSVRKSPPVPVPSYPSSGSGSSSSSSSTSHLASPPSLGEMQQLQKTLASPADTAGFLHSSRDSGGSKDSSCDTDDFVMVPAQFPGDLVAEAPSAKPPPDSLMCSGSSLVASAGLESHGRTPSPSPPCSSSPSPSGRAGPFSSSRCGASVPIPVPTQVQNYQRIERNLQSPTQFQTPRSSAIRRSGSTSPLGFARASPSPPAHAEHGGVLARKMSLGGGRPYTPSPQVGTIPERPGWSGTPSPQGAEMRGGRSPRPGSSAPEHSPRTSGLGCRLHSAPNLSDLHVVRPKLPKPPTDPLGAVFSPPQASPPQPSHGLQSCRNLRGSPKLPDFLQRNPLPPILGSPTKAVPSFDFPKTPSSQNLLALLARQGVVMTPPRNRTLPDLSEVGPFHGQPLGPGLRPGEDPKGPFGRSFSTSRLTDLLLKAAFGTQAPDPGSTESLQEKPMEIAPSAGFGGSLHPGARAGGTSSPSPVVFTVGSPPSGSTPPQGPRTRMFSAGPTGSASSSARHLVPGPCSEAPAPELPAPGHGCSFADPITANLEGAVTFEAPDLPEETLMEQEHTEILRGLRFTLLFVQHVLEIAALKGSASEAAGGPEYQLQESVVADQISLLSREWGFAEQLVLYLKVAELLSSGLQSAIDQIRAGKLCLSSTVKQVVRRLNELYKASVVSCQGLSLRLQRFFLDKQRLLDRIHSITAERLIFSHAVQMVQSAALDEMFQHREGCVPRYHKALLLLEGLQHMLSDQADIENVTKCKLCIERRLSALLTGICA
The experiment in a line: Inhibition of human recombinant ULK1 at 500 nM in presence of ATP by radiometric assay relative to control.

For assay [4], the target named is Cyclin-dependent kinase 5 (Homo sapiens) (UniProt Q00535). As to the kind of experiment: Inhibition of human recombinant CDK5 at 500 nM in presence of ATP by radiometric assay relative to control.
Sequence of Cyclin-dependent kinase 5 (Homo sapiens) (Q00535 whole entry, looked up): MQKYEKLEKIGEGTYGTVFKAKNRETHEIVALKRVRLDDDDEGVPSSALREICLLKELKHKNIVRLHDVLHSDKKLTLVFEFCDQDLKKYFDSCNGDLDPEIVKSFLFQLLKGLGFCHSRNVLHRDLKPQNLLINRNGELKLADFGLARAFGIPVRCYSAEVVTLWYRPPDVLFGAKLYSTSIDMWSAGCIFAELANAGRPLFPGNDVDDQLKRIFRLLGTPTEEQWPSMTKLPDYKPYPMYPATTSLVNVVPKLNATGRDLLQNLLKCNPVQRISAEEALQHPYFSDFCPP
Assay [5] addresses eIF-2-alpha kinase GCN2 (Homo sapiens) (UniProt Q9P2K8). The experiment in a line: Inhibition of human recombinant GCN2 at 500 nM in presence of ATP by radiometric assay relative to control.
The target in assay [6] is Casein kinase I isoform gamma-3 (Homo sapiens) (UniProt Q9Y6M4). The experiment in a line: Inhibition of human recombinant CK1g3 at 500 nM related to control ULK1.
Sequence of Casein kinase I isoform gamma-3 (Homo sapiens) (Q9Y6M4 whole entry, looked up, canonical isoform): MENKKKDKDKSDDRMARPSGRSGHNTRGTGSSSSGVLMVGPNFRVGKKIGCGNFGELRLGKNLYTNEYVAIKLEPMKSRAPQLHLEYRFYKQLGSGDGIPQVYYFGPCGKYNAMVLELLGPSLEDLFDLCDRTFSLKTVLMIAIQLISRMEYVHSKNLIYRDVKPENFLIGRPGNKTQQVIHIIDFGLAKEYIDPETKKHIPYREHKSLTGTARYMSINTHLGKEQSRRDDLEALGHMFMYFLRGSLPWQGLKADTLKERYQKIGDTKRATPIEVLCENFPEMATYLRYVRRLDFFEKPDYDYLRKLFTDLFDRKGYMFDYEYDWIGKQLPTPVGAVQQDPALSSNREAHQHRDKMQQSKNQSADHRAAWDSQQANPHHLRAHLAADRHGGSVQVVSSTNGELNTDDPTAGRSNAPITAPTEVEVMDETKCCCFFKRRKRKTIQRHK
In assay [7] the target is T2, Serine/threonine-protein kinase TBK1 (Homo sapiens) (UniProt Q9UHD2).
T2 sequence (whole entry): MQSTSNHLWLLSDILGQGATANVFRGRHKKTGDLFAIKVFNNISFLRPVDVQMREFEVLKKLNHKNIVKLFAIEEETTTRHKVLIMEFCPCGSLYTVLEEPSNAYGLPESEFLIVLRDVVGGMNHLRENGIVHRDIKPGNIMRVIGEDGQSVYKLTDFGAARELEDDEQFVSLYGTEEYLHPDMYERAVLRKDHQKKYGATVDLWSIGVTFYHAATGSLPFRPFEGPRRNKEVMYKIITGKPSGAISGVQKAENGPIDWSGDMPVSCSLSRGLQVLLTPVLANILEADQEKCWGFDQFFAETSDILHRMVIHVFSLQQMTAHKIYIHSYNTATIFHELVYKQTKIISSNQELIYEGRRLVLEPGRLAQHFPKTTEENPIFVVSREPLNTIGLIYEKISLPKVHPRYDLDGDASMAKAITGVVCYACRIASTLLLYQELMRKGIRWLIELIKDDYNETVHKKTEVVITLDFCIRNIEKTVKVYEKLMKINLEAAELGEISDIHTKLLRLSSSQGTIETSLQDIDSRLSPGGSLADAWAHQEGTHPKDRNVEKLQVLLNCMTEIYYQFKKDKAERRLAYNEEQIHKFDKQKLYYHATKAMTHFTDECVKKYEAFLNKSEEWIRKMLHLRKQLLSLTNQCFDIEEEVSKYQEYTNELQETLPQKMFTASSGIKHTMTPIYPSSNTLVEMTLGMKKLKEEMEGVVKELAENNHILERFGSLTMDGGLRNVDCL
As to the kind of experiment: Inhibition of human recombinant TBK1 at 500 nM related to control ULK1.

The target in assay [8] is Focal adhesion kinase 1 (Homo sapiens) (UniProt Q05397). As to the kind of experiment: Inhibition of human recombinant FAK at 15 nM in presence of ATP by radiometric assay relative to control.
Sequence of Focal adhesion kinase 1 (Homo sapiens) (Q05397 2-1052 limits assumed): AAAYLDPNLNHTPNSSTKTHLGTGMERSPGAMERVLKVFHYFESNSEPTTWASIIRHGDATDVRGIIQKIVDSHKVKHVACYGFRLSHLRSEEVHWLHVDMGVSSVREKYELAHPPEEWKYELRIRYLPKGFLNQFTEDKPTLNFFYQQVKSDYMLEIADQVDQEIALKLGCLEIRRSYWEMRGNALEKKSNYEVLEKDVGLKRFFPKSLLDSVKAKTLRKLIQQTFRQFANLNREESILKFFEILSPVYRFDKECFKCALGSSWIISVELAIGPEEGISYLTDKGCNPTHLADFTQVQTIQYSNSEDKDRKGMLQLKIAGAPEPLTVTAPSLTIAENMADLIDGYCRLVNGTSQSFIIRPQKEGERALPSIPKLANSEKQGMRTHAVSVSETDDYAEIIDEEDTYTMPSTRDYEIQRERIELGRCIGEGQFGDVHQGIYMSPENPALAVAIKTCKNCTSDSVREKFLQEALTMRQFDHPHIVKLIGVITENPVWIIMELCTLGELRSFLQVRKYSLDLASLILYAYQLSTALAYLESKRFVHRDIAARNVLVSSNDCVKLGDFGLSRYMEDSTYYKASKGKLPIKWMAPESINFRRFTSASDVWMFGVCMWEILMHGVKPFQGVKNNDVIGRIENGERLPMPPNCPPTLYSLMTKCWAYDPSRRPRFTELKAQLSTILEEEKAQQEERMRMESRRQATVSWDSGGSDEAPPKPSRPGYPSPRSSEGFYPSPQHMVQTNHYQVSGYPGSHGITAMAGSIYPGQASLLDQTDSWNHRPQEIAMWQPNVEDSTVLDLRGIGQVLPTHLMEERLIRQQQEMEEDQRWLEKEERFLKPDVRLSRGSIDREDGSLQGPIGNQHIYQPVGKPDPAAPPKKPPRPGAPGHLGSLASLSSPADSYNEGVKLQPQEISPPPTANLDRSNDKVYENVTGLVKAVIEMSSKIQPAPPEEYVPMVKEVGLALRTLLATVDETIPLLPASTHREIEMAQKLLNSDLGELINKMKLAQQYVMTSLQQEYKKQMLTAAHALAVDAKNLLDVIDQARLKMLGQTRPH
The target in assay [9] is Cyclin-dependent kinase 18 (Homo sapiens) (UniProt Q07002). The experiment in a line: Inhibition of human recombinant PCTAIRE3 at 15 nM in presence of ATP by radiometric assay relative to control.
Sequence of Cyclin-dependent kinase 18 (Homo sapiens) (Q07002 whole entry): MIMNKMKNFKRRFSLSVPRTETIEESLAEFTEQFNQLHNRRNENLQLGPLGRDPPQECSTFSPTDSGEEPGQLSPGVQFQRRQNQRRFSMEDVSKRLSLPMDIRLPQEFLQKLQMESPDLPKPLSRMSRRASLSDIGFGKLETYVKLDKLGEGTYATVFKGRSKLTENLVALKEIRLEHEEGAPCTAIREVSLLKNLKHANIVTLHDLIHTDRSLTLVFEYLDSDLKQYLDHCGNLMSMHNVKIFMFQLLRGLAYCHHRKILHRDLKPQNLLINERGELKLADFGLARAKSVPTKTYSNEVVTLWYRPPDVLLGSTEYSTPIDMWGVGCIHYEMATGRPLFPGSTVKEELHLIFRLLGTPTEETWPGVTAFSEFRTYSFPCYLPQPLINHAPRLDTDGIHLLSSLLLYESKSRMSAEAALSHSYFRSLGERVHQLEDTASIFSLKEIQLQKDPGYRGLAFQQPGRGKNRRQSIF
Assay [10] concerns the target T3, Mitogen-activated protein kinase kinase kinase 7 (Homo sapiens) (UniProt O43318).
T3 sequence (whole entry): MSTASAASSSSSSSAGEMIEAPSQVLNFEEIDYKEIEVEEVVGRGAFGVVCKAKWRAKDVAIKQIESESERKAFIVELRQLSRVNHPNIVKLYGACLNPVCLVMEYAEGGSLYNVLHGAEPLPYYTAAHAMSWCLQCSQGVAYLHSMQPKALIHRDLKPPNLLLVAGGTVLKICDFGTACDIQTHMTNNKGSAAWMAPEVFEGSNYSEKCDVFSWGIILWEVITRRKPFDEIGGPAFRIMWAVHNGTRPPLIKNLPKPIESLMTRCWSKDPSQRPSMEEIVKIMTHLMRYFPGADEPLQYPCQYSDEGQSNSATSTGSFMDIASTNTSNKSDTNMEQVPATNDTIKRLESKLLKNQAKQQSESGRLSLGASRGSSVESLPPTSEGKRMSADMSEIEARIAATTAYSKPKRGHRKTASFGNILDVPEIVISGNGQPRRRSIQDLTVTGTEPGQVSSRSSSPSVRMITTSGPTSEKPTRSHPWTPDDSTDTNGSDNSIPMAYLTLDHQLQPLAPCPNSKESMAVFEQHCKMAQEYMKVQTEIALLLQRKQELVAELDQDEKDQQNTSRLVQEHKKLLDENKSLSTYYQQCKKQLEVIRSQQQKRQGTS
The experiment in a line: Inhibition of human recombinant TAK1 at 15 nM related to control ULK1.

Sequence of Mitogen-activated protein kinase kinase kinase kinase 1 (Homo sapiens) (Q92918 whole entry, looked up): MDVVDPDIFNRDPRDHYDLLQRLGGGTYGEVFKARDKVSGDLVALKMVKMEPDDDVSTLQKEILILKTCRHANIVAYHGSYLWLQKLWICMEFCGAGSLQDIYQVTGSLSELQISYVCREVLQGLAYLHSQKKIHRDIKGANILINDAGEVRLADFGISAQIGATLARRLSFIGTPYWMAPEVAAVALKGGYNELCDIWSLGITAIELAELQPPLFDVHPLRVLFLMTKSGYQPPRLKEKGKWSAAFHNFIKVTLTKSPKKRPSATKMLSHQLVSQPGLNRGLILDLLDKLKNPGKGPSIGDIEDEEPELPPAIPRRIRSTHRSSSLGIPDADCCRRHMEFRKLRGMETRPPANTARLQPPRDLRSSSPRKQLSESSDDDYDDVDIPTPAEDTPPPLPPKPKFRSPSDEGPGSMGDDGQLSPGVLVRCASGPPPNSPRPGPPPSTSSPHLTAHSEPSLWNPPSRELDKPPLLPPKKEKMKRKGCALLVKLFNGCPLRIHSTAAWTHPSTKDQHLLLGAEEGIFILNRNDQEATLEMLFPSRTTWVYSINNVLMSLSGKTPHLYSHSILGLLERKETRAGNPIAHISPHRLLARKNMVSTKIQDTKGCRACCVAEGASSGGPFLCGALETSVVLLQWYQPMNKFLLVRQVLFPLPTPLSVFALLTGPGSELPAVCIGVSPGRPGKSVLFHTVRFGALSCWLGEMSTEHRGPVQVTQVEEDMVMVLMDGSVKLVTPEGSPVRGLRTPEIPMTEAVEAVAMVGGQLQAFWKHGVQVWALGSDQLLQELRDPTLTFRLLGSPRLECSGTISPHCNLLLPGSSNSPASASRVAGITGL
Sequence of eIF-2-alpha kinase GCN2 (Homo sapiens) (Q9P2K8 whole entry, canonical isoform): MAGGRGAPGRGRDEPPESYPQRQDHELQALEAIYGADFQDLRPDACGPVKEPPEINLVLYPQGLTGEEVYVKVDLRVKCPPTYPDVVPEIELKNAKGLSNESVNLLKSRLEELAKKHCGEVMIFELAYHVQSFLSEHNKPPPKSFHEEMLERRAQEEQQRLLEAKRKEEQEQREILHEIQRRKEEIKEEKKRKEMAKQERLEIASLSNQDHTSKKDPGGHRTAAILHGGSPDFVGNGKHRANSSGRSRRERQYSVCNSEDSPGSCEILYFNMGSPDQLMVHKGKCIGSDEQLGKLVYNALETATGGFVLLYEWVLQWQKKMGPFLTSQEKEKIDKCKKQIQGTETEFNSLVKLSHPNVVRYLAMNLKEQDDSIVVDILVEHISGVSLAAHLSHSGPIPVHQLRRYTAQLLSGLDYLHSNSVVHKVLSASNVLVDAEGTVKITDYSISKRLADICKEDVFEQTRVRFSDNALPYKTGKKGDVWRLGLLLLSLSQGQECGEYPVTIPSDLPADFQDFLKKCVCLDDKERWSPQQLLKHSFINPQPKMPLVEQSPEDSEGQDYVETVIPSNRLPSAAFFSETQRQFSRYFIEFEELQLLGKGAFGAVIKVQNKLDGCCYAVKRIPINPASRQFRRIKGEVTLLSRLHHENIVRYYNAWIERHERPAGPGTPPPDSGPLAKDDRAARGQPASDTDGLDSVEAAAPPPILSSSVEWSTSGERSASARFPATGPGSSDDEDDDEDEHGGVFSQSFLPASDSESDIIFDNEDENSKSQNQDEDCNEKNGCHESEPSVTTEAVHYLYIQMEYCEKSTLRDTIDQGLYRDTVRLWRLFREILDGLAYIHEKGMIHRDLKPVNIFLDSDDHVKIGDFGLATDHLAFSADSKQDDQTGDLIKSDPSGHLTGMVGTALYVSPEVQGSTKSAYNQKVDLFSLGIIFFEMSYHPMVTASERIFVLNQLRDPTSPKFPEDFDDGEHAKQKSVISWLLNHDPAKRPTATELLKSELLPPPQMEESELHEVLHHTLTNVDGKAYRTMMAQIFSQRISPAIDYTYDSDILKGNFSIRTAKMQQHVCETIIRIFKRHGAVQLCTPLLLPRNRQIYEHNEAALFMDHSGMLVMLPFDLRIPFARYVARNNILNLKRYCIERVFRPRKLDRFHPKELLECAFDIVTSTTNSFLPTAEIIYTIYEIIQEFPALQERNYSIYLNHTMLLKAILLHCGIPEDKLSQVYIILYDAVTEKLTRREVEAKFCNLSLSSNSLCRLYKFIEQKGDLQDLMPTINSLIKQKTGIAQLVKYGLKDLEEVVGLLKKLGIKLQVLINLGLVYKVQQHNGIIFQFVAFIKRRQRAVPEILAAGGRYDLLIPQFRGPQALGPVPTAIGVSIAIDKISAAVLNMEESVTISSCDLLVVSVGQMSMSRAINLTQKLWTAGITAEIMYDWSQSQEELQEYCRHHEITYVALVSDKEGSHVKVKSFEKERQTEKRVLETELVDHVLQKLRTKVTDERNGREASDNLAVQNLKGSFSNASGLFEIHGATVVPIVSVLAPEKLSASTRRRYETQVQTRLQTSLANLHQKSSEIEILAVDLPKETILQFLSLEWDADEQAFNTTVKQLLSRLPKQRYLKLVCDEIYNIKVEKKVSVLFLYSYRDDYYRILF

Turning to `O=C(N[C@@H](C1CC1)C(F)(F)F)c1cc(-c2cnn3cc(-c4ccc(F)cc4)cnc23)cs1`, the inhibition in [1] came to 34%. For the same molecule, the fold change (FC) in [2] was found to be 0.
Take `CNC(=O)c1ccccc1Oc1nc(Nc2cc(OC)c(OC)c(OC)c2)ncc1Br`: the results for the inhibition in assay [3], in assay [4] and in assay [5] were 74%, 57% and 2%, respectively. For the same molecule, the fold change (FC) in assay [6] and in [7] was 0 throughout.
Consider `CC(C)[C@H](NC(=O)c1cc(-c2cnn3cc(-c4ccc(OCCN5CCCCC5)cc4)cnc23)cs1)C(F)(F)F`, for which the results for the inhibition in assay [8] and in assay [9] were 0% and 67%, respectively. Further, in [10], the fold change (FC) came out at 0.01.
